Counter-ions that a name gives are not always drawn.

Data on 27 molecules can be found in US10975056B2 (GlaxoSmithKline Intellectual Property Development Limited, priority 2016, dated 2021).

For one test, the target named is DNMT1 (Homo sapiens, UniProt P26358). The test can be described thus: DNMT1 biochemical activity, breaklight assay and/or SPA assay. The note with it: binned activity in either the breaklight or the SPA assay; for IC50: read-out: DNMT1 BioChemical (pIC50 category) (converted).
Test [1] deals with erythroid progenitor cells (EPCs). As to the kind of experiment: Fetal hemoglobin (HbF) ELISA in day 7 erythroid progenitor cells.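 Also: for fetal hemoglobin induction normalized to vehicle-treated cells.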 The format is cell-based, human. Particulars: Homo sapiens, Erythroid progenitor cell, HbF ELISA, day 7 EPCs, 5 days; read-out: EPC ELISA (pEC50 category) (converted). The gist of the method: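 CD34+-derived EPCs, 1,000 cells/well, rhEPO 3 U/mL; Compound A 22-pt series, […]; 5 d, 37° C, 5% CO2. Freeze-thaw lysis, anti-HbF capture + HRP anti-HbF, TMB, OD450. Normalized to DMSO wells.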
(ELISA stands for enzyme-linked immunosorbent assay.)

DNMT1, sequence (P26358 whole entry, looked up): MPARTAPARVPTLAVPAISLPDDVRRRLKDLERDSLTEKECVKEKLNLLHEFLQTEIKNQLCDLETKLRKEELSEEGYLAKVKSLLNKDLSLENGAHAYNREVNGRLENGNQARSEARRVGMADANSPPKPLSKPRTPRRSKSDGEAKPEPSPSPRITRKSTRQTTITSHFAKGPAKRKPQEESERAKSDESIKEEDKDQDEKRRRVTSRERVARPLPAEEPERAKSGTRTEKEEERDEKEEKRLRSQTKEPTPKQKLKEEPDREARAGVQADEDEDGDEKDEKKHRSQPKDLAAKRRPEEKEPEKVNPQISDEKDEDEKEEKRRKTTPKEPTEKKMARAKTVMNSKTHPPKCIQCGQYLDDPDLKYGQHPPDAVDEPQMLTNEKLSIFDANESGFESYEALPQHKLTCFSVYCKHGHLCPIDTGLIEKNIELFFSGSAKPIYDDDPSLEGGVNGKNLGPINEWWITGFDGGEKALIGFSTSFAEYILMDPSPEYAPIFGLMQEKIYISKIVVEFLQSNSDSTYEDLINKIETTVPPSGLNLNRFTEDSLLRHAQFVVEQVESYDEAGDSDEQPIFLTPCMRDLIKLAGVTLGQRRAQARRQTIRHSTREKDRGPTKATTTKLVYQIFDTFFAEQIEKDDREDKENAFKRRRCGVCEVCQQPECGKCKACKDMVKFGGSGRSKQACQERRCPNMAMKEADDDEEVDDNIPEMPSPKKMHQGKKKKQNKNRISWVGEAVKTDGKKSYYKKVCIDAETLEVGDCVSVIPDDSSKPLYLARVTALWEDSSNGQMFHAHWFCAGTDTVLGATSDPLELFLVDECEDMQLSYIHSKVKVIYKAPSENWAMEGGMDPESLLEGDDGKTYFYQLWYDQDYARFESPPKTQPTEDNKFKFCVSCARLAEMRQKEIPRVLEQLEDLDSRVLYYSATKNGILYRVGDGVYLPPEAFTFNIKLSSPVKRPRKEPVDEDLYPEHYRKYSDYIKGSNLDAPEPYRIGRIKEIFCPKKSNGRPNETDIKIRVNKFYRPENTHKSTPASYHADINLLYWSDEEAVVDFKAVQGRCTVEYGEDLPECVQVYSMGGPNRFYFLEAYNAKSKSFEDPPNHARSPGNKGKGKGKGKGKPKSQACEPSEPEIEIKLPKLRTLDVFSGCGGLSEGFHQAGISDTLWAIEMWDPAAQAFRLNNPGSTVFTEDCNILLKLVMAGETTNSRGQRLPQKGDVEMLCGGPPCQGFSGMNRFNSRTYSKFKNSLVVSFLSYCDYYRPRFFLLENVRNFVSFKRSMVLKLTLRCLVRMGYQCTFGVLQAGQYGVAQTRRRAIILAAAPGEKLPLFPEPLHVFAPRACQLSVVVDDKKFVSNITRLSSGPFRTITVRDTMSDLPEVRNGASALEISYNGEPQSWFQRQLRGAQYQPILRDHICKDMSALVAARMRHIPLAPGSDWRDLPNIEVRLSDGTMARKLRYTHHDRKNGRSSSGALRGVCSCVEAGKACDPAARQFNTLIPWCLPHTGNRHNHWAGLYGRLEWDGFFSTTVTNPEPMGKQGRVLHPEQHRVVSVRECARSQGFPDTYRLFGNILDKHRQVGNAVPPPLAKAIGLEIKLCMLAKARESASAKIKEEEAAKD

As to `CCc1c(C#N)c(SCc2ccc(C(=O)O)cc2)nc(N2CCCN(C)CC2)c1C#N` [Example 73, 4-(((3,5-Dicyano-4-ethyl-6-(4-methyl-1,4-diazepan-1-yl)pyridin-2-yl)thio)methyl)benzoic acid], the IC50 on DNMT1 is 0.316 to 1 µM. Also, the EC50 in test [1] was over 31.6 µM.

On to `CCc1c(C#N)c(SC(C(N)=O)c2ccc(F)cc2)nc(N2CC[C@@H](N(C)C)C2)c1C#N` (stereo partly drawn) [Example 530, 2-((3,5-dicyano-6-((R)-3-(dimethylamino)pyrrolidin-1-yl)-4-ethylpyridin-2-yl)thio)-2-(4-fluorophenyl)acetamide], for which the “DNMT1 BioChemical (pIC50 category)” value on DNMT1 is “D (Category D: ≥6.5)”. In addition, the EC50 in test [1] was 1 to 31.6 µM.

As for `CCc1c(C#N)c(SC(C(N)=O)c2ccc(OC)cn2)nc(N2CCCN(C)CC2)c1C#N` (stereo not drawn) [Example 221, 2-((3,5-Dicyano-4-ethyl-6-(4-methyl-1,4-diazepan-1-yl)pyridin-2-yl)thio)-2-(5-methoxypyridin-2-yl)acetamide], the IC50 on DNMT1 was 0.316 to 1 µM. Also, in test [1], the EC50 was under 0.316 µM.

In the case of `CCc1c(C#N)c(SC(C(N)=O)c2ccccc2)nc(N(C)CCOCCN)c1C#N` (stereo not drawn) [Example 628, 2-((6-((2-(2-aminoethoxy)ethyl)(methyl)amino)-3,5-dicyano-4-ethylpyridin-2-yl)thio)-2-phenylacetamide], the “DNMT1 BioChemical (pIC50 category)” value on DNMT1 is “D (Category D: ≥6.5)”. Besides, the EC50 in test [1] is under 0.316 µM.

Take `CCc1c(C#N)c(SC(C(N)=O)c2ccccc2)nc(N2CCC(OC(=O)[C@@H](N)C(C)C)CC2)c1C#N` (stereo partly drawn) [Example 274, 1-(6-((2-Amino-2-oxo-1-phenylethyl)thio)-3,5-dicyano-4-ethylpyridin-2-yl)piperidin-4-yl (2S)-2-amino-3-methylbutanoate]: the “DNMT1 BioChemical (pIC50 category)” value on DNMT1 was “D (Category D: ≥6.5)”. Besides, in test [1], the EC50 was under 0.316 µM.

In the case of `CCc1c(C#N)c(SC(C(N)=O)c2ccccc2)nc(N2CCC[C@H](NC)C2)c1C#N` (stereo partly drawn) [Example 607, 2-((3,5-dicyano-4-ethyl-6-((S)-3-(methylamino)piperidin-1-yl)pyridin-2-yl)thio)-2-phenylacetamide], the “DNMT1 BioChemical (pIC50 category)” value on DNMT1 is recorded as “D (Category D: ≥6.5)”. The EC50 in test [1] was under 0.316 µM.

For `CCc1c(C#N)c(S[C@@H](C(N)=O)c2ccccc2)nc(N2CCC(N(C)C)CC2)c1C#N` [Example 406, (R)-2-((3,5-Dicyano-6-(4-(dimethylamino)piperidin-1-yl)-4-ethylpyridin-2-yl)thio)-2-phenylacetamide], the “DNMT1 BioChemical (pIC50 category)” value at DNMT1 is on record as “D (Category D: ≥6.5)”. Also, the EC50 in test [1] is under 0.316 µM.

Regarding `N#Cc1c(SC(C(N)=O)c2ccccc2)nc(N2CCC(NCCO)CC2)c(C#N)c1C1CC1` (stereo not drawn) [Example 657, 2-((3,5-dicyano-4-cyclopropyl-6-(4-((2-hydroxyethyl)amino)piperidin-1-yl)pyridin-2-yl)thio)-2-phenylacetamide], the “DNMT1 BioChemical (pIC50 category)” value on DNMT1 is on record as “D (Category D: ≥6.5)”. For the same molecule, in test [1], the EC50 was 1 to 31.6 µM.

`CCc1c(C#N)c(SC(C(N)=O)c2ccccc2)nc(N(C)CC(=O)N2CC[C@@H](O)C2)c1C#N` (stereo partly drawn) [Example 613, 2-((3,5-dicyano-4-ethyl-6-((2-((R)-3-hydroxypyrrolidin-1-yl)-2-oxoethyl)(methyl)amino)pyridin-2-yl)thio)-2-phenylacetamide]: at DNMT1, the “DNMT1 BioChemical (pIC50 category)” value is recorded as “D (Category D: ≥6.5)”. The EC50 in test [1] is under 0.316 µM.

Take `N#Cc1c(SC(C(N)=O)c2ccccc2)nc(N2CC(NC(=O)CN)C2)c(C#N)c1C1CC1` (stereo not drawn) [Example 610, 2-amino-N-(1-(6-((2-amino-2-oxo-1-phenylethyl)thio)-3,5-dicyano-4-cyclopropylpyridin-2-yl)azetidin-3-yl)acetamide]: the “DNMT1 BioChemical (pIC50 category)” value at DNMT1 is “D (Category D: ≥6.5)”. Moreover, the EC50 in test [1] was 1 to 31.6 µM.

Regarding `CCc1c(C#N)c(C)nc(SCc2ccc(CNC(C)=O)cc2)c1C#N` [Example 284, N-(4-(((3,5-Dicyano-4-ethyl-6-methylpyridin-2-yl)thio)methyl)benzyl)acetamide], on DNMT1, the IC50 is 0.316 to 1 µM. Also, the EC50 in test [1] was over 31.6 µM.

As for `CCc1c(C#N)c(SC(C(N)=O)c2ccccc2)nc(N(C)CC(=O)NCCn2cnnc2)c1C#N` (stereo not drawn) [Example 686, N-(2-(4H-1,2,4-triazol-4-yl)ethyl)-2-((6-((2-amino-2-oxo-1-phenylethyl)thio)-3,5-dicyano-4-ethylpyridin-2-yl)(methyl)amino)acetamide], on DNMT1, the “DNMT1 BioChemical (pIC50 category)” value is “D (Category D: ≥6.5)”. The EC50 in test [1] is 1 to 31.6 µM.

On to `CCc1c(C#N)c(SC(C(N)=O)c2ccccc2)nc(N2CCC(NC(=O)CCCN)CC2)c1C#N` (stereo not drawn) [Example 629, 4-amino-N-(1-(6-((2-amino-2-oxo-1-phenylethyl)thio)-3,5-dicyano-4-ethylpyridin-2-yl)piperidin-4-yl)butanamide formate], for which the “DNMT1 BioChemical (pIC50 category)” value at DNMT1 is recorded as “D (Category D: ≥6.5)”. Also, in test [1], the EC50 was 1 to 31.6 µM.

For `CCc1c(C#N)c(S[C@@H](C(N)=O)c2ccc(Cl)cc2)nc(N2CC[C@H](O)C2)c1C#N` [Example 424, (R)-2-(4-chlorophenyl)-2-((3,5-dicyano-4-ethyl-6-((S)-3-hydroxypyrrolidin-1-yl)pyridin-2-yl)thio)acetamide], the “DNMT1 BioChemical (pIC50 category)” value at DNMT1 is reported as “D (Category D: ≥6.5)”. Moreover, in test [1], the EC50 is 0.316 to 1 µM.

Turning to `CCc1c(C#N)c(SC(C(N)=O)c2ccccc2)nc(N2CCN(Cc3ccoc3)CC2)c1C#N` (stereo not drawn) [Example 200, 2-((3,5-Dicyano-4-ethyl-6-(4-(furan-3-ylmethyl)piperazin-1-yl)pyridin-2-yl)thio)-2-phenylacetamide], on DNMT1, the IC50 was 0.316 to 1 µM. For the same molecule, the EC50 in test [1] is 1 to 31.6 µM.

Consider `CCc1c(C#N)c(SC(C(N)=O)c2ccccc2)nc(N(C)CC(=O)N(C)CC(C)(C)CO)c1C#N` (stereo not drawn) [Example 615, 2-((6-((2-amino-2-oxo-1-phenylethyl)thio)-3,5-dicyano-4-ethylpyridin-2-yl)(methyl)amino)-N-(3-hydroxy-2,2-dimethylpropyl)-N-methylacetamide], for which, at DNMT1, the “DNMT1 BioChemical (pIC50 category)” value is “D (Category D: ≥6.5)”. For the same molecule, the EC50 in test [1] was under 0.316 µM.

Regarding `CCc1c(C#N)c(SC(C(N)=O)c2ccccc2)nc(N2CCC(N3CCC(N)C3=O)CC2)c1C#N` (stereo not drawn) [Example 270], the “DNMT1 BioChemical (pIC50 category)” value at DNMT1 was “D (Category D: ≥6.5)”. Also, the EC50 in test [1] was 1 to 31.6 µM.

As to `CCc1c(C#N)c(SCc2ccc(CNC(=O)CO)cc2)nc(N2CCC(O)C2)c1C#N` (stereo not drawn) [Example 367], at DNMT1, the IC50 was 0.316 to 1 µM. In test [1], the EC50 was 1 to 31.6 µM.

As to `CCc1c(C#N)c(SC(C(N)=O)c2ccccc2)nc(N2CC[C@@H](NC(=O)OC(C)(C)C)[C@@H](F)C2)c1C#N` (single isomer, unassigned) [Example 534, rel-tert-butyl (cis)-1-(6-((2-amino-2-oxo-1-phenylethyl)thio)-3,5-dicyano-4-ethylpyridin-2-yl)-3-fluoropiperidin-4-yl)carbamate], the IC50 at DNMT1 was under 0.316 µM. Also, the EC50 in test [1] is under 0.316 µM.

As for `N#Cc1c(SC(C(N)=O)c2ccncc2)nc(N2CCNCC2)c(C#N)c1C1CC1` (stereo not drawn) [Example 30, 2-((3,5-dicyano-4-cyclopropyl-6-(piperazin-1-yl)pyridin-2-yl)thio)-2-(pyridin-4-yl)acetamide], the IC50 at DNMT1 was 0.316 to 1 µM. For the same molecule, in test [1], the EC50 is over 31.6 µM.

For `CCc1nc(SC(C(N)=O)c2ccccc2)c(C#N)c(CC)c1C#N` (stereo not drawn) [Example 351], the IC50 on DNMT1 was 0.316 to 1 µM. Moreover, the EC50 in test [1] is over 31.6 µM.

For `CCc1c(C#N)c(SC(C(N)=O)c2ccccc2)nc(N2CCO[C@@H](CNC(=O)C(C)(C)N)C2)c1C#N` (stereo partly drawn) [Example 575, 2-amino-N-(((2S)-4-(6-((2-amino-2-oxo-1-phenylethyl)thio)-3,5-dicyano-4-ethylpyridin-2-yl)morpholin-2-yl)methyl)-2-methylpropanamide], the “DNMT1 BioChemical (pIC50 category)” value at DNMT1 is “D (Category D: ≥6.5)”. The EC50 in test [1] is under 0.316 µM.

Consider `CCc1c(C#N)c(SCc2ccc(N(C)S(=O)(=O)CF)cc2)nc(N2CCCN(C)CC2)c1C#N` [Example 595, N-(4-(((3,5-dicyano-4-ethyl-6-(4-methyl-1,4-diazepan-1-yl)pyridin-2-yl)thio)methyl)phenyl)-1-fluoro-N-methylmethanesulfonamide], for which the “DNMT1 BioChemical (pIC50 category)” value at DNMT1 was “D (Category D: ≥6.5)”. Besides, the EC50 in test [1] was under 0.316 µM.

As for `CCc1c(C#N)c(SCc2ccc(CNC(=O)[C@H](C)N)cc2)nc(N2CCCN(C)CC2)c1C#N` [Example 97, (S)-2-Amino-N-(4-(((3,5-dicyano-4-ethyl-6-(4-methyl-1,4-diazepan-1-yl)pyridin-2-yl)thio)methyl)benzyl)propanamide], the “DNMT1 BioChemical (pIC50 category)” value at DNMT1 is given as “D (Category D: ≥6.5)”. For the same molecule, the EC50 in test [1] is over 31.6 µM.

`CCc1c(C#N)c(SC(C(N)=O)c2ccc(C)cn2)nc(N(C)C)c1C#N` (stereo not drawn) [Example 238, 2-((3,5-Dicyano-6-(dimethylamino)-4-ethylpyridin-2-yl)thio)-2-(5-methylpyridin-2-yl)acetamide]: the “DNMT1 BioChemical (pIC50 category)” value at DNMT1 is listed as “D (Category D: ≥6.5)”. The EC50 in test [1] is 1 to 31.6 µM.

Regarding `CCc1c(C#N)c(SCc2ccc(N(C)S(C)(=O)=O)cc2)nc(N2CCCC(CN(C)C)C2)c1C#N` (stereo not drawn) [Example 597, N-(4-(((3,5-dicyano-6-(3-((dimethylamino)methyl)piperidin-1-yl)-4-ethylpyridin-2-yl)thio)methyl)phenyl)-N-methylmethanesulfonamide], the “DNMT1 BioChemical (pIC50 category)” value on DNMT1 was “D (Category D: ≥6.5)”. The EC50 in test [1] is under 0.316 µM.

For the molecule `CCc1c(C#N)c(SCc2ccc(CNC(=O)CN)cc2)nc(N(C)C)c1C#N` [Example 268, 2-Amino-N-(4-(((3,5-dicyano-6-(dimethylamino)-4-ethylpyridin-2-yl)thio)methyl)benzyl)acetamide], the IC50 at DNMT1 was 1 to 31.6 µM. Also, in test [1], the EC50 was 1 to 31.6 µM.
